Here are results for one compound from US20200222347A1, “ANTIMICROBIALS AND METHODS OF USE THEREOF” (priority 2013, published 2020).

Experiment in all cases: Local growth hormones in tape stripped mouse skin wound by ELISA (FIG. 11, FIG. 13, Example 5)
Common to all, as to format: in vivo, mice

Assay [1] deals with EGF. On the procedure: (§1) Four different conditions were used: mice had back skin tape stripped and the stripped site (wound) was infected with P. aeruginosa; mice had back skin stripped and were not infected, mice had taped stripped, infected and treated with PCA, mice were tape stripped, uninfected, and treated with PCA. When used, the PCA test reagent was applied topically in an aqueous solution on the stripped site at two hours and 24 hours.
(§2) The testing reagents consisted of and PCA formulated at one dose, 25 mM, in an aqueous solution. Levels of IGF-1, TGF-β, and EGF levels in the skin tissue at 48 hours were measured by ELISA. There were two control groups; the stripped skin and the stripped skin and infected.

In assay [2] the test system is IGF-1. The procedure:
as §1, §2

Assay [3] deals with TGF-β. On the procedure: as §1, §2
Setting [4] is: 25 mM at 2 and 24 hours, tape stripped and infected with P. aeruginosa, 48 hours (FIG. 13).

Structures are written as SMILES. Entries after “also recorded” stand apart in the source; their conditions may differ.

Regarding `O=C(O)c1ccc(O)c(O)c1` [PCA, Protocatechuic acid], in assay [1] (setting [4]), the “EGF level in skin tissue” value is listed as “decreased; also recorded: lowest”. Also, the “local growth hormone level of EGF” value in assay [1] (25 mM, site of the untreated skin wound (FIG. 11C)) is given as “increased”. Further, the “IGF-1 level in skin tissue” value in assay [2] (setting [4]) is reported as “moderately elevated; also recorded: optimizes the IGF-1 production”. In addition, in assay [2] (25 mM, site of the untreated skin wound (FIG. 11A)), the “local growth hormone level of IGF-1” value is “increased”. Also, the “optimal dose to optimize local growth hormones” value in assay [2] (IGF-1, TGF-β and EGF together, rodent skin wound) is “Approximately 25 mM”. In addition, the “TGF-β level in skin tissue” value in assay [3] (setting [4]) is on record as “decreased”. Besides, the “local growth hormone level of TGF-Beta” value in assay [3] (25 mM, site of the untreated skin wound (FIG. 11B)) is listed as “increased”.
